{"source": "patent US20050058658A1", "about": "“Compositions and methods for immunotherapy of human immunodeficiency virus (HIV)” (priority 2003, published 2005)", "key": {"[1]": {"system": "HIV-1IIIB infected CEM-SS cells", "experiment": "MTT staining for cell viability, HIV-1 hollow fiber mouse model", "type": "in vivo", "procedure": "(§1) The HIV-1 hollow fiber mouse model was performed (Hollingshead et al., Antiviral Res. 1995, 28:265-279; Buckheit et al., AIDS Res. Hum. Retroviruses 1997, 13:789-796; Xu et al., Bioorg. Med. Chem. Lett. 1999, 9:133-138; Quenelle et al., Antiviral Res. 1997, 35:123-129). In brief, CEM-SS cells were infected with HIV-1IIIB at a multiplicity of infection (MOI) of 0.0002 and sealed in hollow fibers (2×10^5 cells/fiber) immediately prior to implantation in the mice. Cell control hollow fibers (mock infected) and blank fibers (containing tissue culture medium without cells or virus) were prepared in a similar manner. Hollow fibers were implanted in the subcutaneous and intraperitoneal compartments of the mice (three fibers/compartment/mouse). Mice were treated with the E. tenella protein extract once daily (0.1 mL/10 g body weight) on day 0 (immediately prior to implantation of the fibers) and on days 1-6. Cell control, virus control and blank control mice were dosed similarly using 30 mM Hepes. AZT treated mice were also dosed similarly, however, dosing was performed twice daily at a concentration of 150 mg/kg (300 mg/kg/day). On day seven post implantation, the fibers, blood samples and peritoneal wash were collected from the mice. The viability of the infected CEM-SS cells collected from hollow fibers was determined using an MTT dye conversion assay. Viral reverse transcriptase assay and p24 (capsid) antigen quantification were performed on the hollow fiber cultures as well as the blood samples and the peritoneal wash. Of the three fibers collected from each compartment (intraperitoneal and subcutaneous), one fiber was used for analysis of viral reverse transcriptase and p24, while the remaining two fibers used to analyze cell viability by MTT dye reduction. The experimental treatment groups used in the study included the following: • 1. E. tenella protein extract concentration #1 (virus infected fibers; 7 mice) • 2. E. tenella protein extract concentration #2 (virus infected fibers; 7mice) • 3. E. tenella protein extract concentration #3 (virus infected fibers; 7 mice) • 4. AZT; positive control antiviral drug (virus infected fibers; 7 mice) • 5. Virus Control, no drug treatment (treated with vehicle; virus infected fibers; 7 mice) • 6. Cell Control, no drug treatment (treated with vehicle; mock-infected fibers; 7 mice) • 7. Blank Control, no drug treatment (treated with vehicle; “empty” fibers; 2 mice) MTT Staining for Cell Viability:\nThe viability of cells in the hollow fiber cultures was measured using an MTT dye reduction assay. MTT is a tetrazolium dye that is metabolized by the mitochondria enzymes of metabolically active cells to yield a […] formazan product that can be detected spectrophotometrically. Following collection from the animals, hollow fibers were placed individually into the wells of a 6-well tissue culture plate containing 2 mL of pre-warmed (37° C.) RPMI medium (without phenol red) supplemented with 20% fetal bovine serum. Cells were assayed to viability by adding 180 μL of MTT stock solution (pre-warmed to 37° C.) to each of the wells, followed by incubation for 4 hours at 37° C. in a 5% CO2 atmosphere, removal of medium/MTT solution, and addition of 4 mL of 2.5% Protamine Sulfate (PMS). […] Subsequently, 150 μL of each sample was transferred to a 96 well plate and the optical density of the samples read at 570/650 nm using a Molecular Devices Vmax or SpectraMaxPlus plate reader."}, "[2]": {"system": "HIV-1IIIB infected CEM-SS cells", "experiment": "Reverse transcriptase assay, HIV-1 hollow fiber mouse model", "type": "in vivo", "conditions": "150 mg/kg twice daily (300 mg/kg/day), day 7", "procedure": "as §1\nA microtiter plate-based reverse transcriptase (RT) reaction was utilized (Buckheit et al., AIDS Research and Human Retroviruses 1991, 7:295-302). Tritiated thymidine triphosphate (^3H-TTP 80 Ci/mmol, NEN) was received in 1:1 dH2O: Ethanol at 1 mCi/mL. Poly rA:oligo dT template:primer (Pharmacia) was prepared as a stock solution by combining 150 μL poly rA (20 mg/mL) with 0.5 mL oligo dT (20 units/mL) and 5.35 mL sterile dH2O followed by aliquoting (1.0 mL) and storage at −20° C. The RT reaction buffer was prepared fresh on a daily basis and consisted of 125 μL 1.0 M EGTA, 125 μL dH2O, 125 μL 20% Triton X100, 50 μL 1.0 M Tris (pH 7.4), 50 μL 1.0 M DTT, and 40 μL 1.0 M MgCl2. The final reaction mixture was prepared by combining 1 part ^3H-TTP, 4 parts dH2O, 2.5 parts poly rA:oligo dT stock and 2.5 parts reaction buffer. Ten microliters of this reaction mixture was placed in a round bottom microtiter plate and 15 μL of supernatant resulting from the lysis of cells collected from the fibers (see the section describing the p24 Antigen ELISA above) or serum or peritoneal wash (serum and peritoneal wash samples were clarified by centrifugation without further manipulation prior to analysis) was added and mixed. The plate was incubated at 37° C. for 60 minutes. […]"}, "[3]": {"system": "HIV-1IIIB infected CEM-SS cells", "experiment": "p24 antigen ELISA, HIV-1 hollow fiber mouse model", "type": "in vivo", "conditions": "150 mg/kg twice daily (300 mg/kg/day), day 7", "procedure": "as §1\nFollowing collection of the fibers from the mice, detection of p24 antigen was performed according to the manufacturer's instructions. Individual fibers were cut open and placed in Eppendorf tubes and cells lysed by the addition of 250 μl of lysis buffer (0.02 M Tris-HCl pH 7.5, 0.05 M NaCl, 0.5% Triton X-100), incubation at room temperature for 30 minutes, vortexing, followed by centrifugation at 14,000 rpm for four minutes in a microcentrifuge. Serum and peritoneal wash samples were clarified by centrifugation without further manipulation prior to analysis. All p24 determinations on the resulting supernatants were performed following serial dilution of the samples to ensure absorbances in the linear range of the standard p24 antigen curve. The standard curve is produced using manufacturer-supplied standards and instructions. Data are obtained by spectrophotometric analysis at 450/570 nm using a Molecular Devices Vmax or SpectraMaxPlus plate reader. Final concentrations are calculated from the optical density values using the Molecular Devices SoftMax Pro software package and expressed in pg/ml p24 antigen."}, "[4]": {"system": "experimental autoimmune encephalomyelitis (EAE)", "experiment": "Experimental autoimmune encephalomyelitis (EAE) model", "type": "in vivo, SJL mice", "conditions": "5 mg s.c. daily for 5 days from day 10", "procedure": "This hyposthesis was tested in the experimental autoimmune encephalomyelitis (EAE) model in SJL mice. EAE is induced in mice by immunization with spinal cord derived myelin basic protein which induces a disease in the mice which is very similar to multiple schlerosis (MS) in humans.\nTreatments were given daily for 5 days. Linomide is a drug that is known to inhibit EAE and is used as a positive control. […] Severity of EAE is measured by means of the EAE score which starts at 0 for normal and increases to a score of 5 when death occurs. For ethical reasons mice are sacrificed when a score of 4 is reached."}, "[5]": {"conditions": "150 mg/kg twice daily (300 mg/kg/day), day 7"}, "[6]": {"conditions": "150 mg/kg twice daily (300 mg/kg/day), fibers day 7, optical density 570/650 nm"}}, "data": [{"smiles": "Cc1cn([C@H]2C[C@H](N=[N+]=[N-])[C@@H](CO)O2)c(=O)[nH]c1=O", "note": "[AZT, 3′-Azido-3′-deoxythymidine]", "values": [{"measurement": "MTT Intraperitoneal Fiber, % CPE Reduction, % Value", "setting": "[1]; [5]", "value": 0.00, "unit": "%"}, {"measurement": "MTT Subcutaneous Fiber, % CPE Reduction, % Value", "setting": "[1]; [5]", "value": 6.83, "unit": "%"}, {"measurement": "MTT Intraperitoneal Fiber, Average", "setting": "[1]; [6]", "value": 1.11}, {"measurement": "MTT Subcutaneous Fiber, Average", "setting": "[1]; [6]", "value": 0.96}, {"measurement": "Effect on cytopathic effect (CPE) of HIV-1IIIB on CEM-SS cells", "setting": "[1]; hollow fiber cultures, all concentrations tested", "value": "did not have an effect on this viral endpoint"}, {"measurement": "Reverse Transcriptase Intraperitoneal Fiber, % Virus Control, % Value", "setting": "[2]", "value": 52.8, "unit": "%"}, {"measurement": "Reverse Transcriptase Intraperitoneal Fiber, Average", "setting": "[2]", "value": 6372, "unit": "CPM"}, {"measurement": "Reverse Transcriptase Peritoneal Wash, % Virus Control, % Value", "setting": "[2]", "value": 25.7, "unit": "%"}, {"measurement": "Reverse Transcriptase Peritoneal Wash, Average", "setting": "[2]", "value": 392, "unit": "CPM"}, {"measurement": "Reverse Transcriptase Serum, % Virus Control, % Value", "setting": "[2]", "value": 52.8, "unit": "%"}, {"measurement": "Reverse Transcriptase Serum, Average", "setting": "[2]", "value": 403, "unit": "CPM"}, {"measurement": "Reverse Transcriptase Subcutaneous Fiber, % Virus Control, % Value", "setting": "[2]", "value": 71.9, "unit": "%"}, {"measurement": "Reverse Transcriptase Subcutaneous Fiber, Average", "setting": "[2]", "value": 10178, "unit": "CPM"}, {"measurement": "p24 Intraperitoneal Fiber, % Virus Control, % Value", "setting": "[3]", "value": 99.1, "unit": "%"}, {"measurement": "p24 Intraperitoneal Fiber, Average", "setting": "[3]", "value": 215136, "unit": "pg/mL"}, {"measurement": "p24 Peritoneal Wash, % Virus Control, % Value", "setting": "[3]", "value": 92.8, "unit": "%"}, {"measurement": "p24 Peritoneal Wash, Average", "setting": "[3]", "value": 109, "unit": "pg/mL"}, {"measurement": "p24 Serum, % Virus Control, % Value", "setting": "[3]", "value": 37.0, "unit": "%"}, {"measurement": "p24 Serum, Average", "setting": "[3]", "value": 18, "unit": "pg/mL"}, {"measurement": "p24 Subcutaneous Fiber, % Virus Control, % Value", "setting": "[3]", "value": 110.3, "unit": "%"}, {"measurement": "p24 Subcutaneous Fiber, Average", "setting": "[3]", "value": 312334, "unit": "pg/mL"}]}, {"smiles": "CN(C(=O)c1c(O)c2ccccc2n(C)c1=O)c1ccccc1", "note": "[Linomide]", "values": [{"measurement": "Day 15 EAE Score ± SD", "setting": "[4]", "value": "0.6 ± 1.3"}]}]}
